Data on five molecules can be found in US7074789B2, “Kinase inhibitors” (Amgen Inc., priority 1999, dated 2006).

pIC50: −log10 of the molar value.

What all share (format): biochemical
One assay deals with T1, Tek (Homo sapiens, UniProt Q02763).
T1 construct: Kinases are expressed as either kinase domains or full length constructs; made in house
Put plainly: Kinase inhibition assay (33P transfer), Tek. Conditions: read-out: Tek-1. An outline of the steps: (§1)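 Activity read as 33P incorporation from ATP into poly(Glu,Tyr) 4:1 or poly(Arg,Ser) 3:1 substrate bound to microtiter plates, measured by scintillation after acid washing. Enzymes were affinity-purified GST or polyHis fusions (kinase domain or full length) from E. coli or baculovirus; IC50 = 50% reduction in labelled phosphate.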

A further assay addresses T2, EPHB4 (Homo sapiens, UniProt P54760).
T2 construct: Kinases are expressed as either kinase domains or full length constructs; made in house
T2 sequence (P54760 16-987): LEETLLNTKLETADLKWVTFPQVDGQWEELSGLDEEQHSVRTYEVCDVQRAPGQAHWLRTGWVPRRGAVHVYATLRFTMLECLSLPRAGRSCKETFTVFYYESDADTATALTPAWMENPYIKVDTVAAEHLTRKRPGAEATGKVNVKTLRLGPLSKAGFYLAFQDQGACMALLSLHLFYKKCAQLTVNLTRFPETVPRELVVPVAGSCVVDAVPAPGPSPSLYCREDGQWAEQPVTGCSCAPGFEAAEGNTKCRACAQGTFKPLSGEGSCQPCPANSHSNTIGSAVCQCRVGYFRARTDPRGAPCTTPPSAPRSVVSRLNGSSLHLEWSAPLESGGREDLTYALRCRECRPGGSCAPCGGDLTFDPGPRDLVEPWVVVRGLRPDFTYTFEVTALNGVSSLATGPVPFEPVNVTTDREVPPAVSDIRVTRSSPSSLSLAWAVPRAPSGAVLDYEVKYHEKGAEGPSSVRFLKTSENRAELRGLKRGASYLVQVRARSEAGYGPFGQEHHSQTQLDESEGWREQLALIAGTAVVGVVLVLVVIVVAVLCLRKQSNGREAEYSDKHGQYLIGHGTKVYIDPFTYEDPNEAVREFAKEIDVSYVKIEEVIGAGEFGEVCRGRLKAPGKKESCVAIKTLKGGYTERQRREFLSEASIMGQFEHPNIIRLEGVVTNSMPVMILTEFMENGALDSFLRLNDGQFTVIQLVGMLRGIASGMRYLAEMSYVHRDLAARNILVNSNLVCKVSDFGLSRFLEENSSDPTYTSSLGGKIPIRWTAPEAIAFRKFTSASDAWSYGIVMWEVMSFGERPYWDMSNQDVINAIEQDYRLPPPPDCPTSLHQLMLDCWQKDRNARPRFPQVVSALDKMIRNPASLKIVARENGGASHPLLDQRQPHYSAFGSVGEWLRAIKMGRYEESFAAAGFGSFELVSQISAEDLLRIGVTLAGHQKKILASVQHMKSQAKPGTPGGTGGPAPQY
Put plainly: Kinase inhibition assay (33P transfer), EPHB4. Conditions: read-out: EPHB4-1.

Another assay deals with T3, Lyn (Homo sapiens, UniProt P07948).
T3 construct: Kinases are expressed as either kinase domains or full length constructs; made in house
T3 sequence (P07948 whole entry, species assumed, the tested form may be a part): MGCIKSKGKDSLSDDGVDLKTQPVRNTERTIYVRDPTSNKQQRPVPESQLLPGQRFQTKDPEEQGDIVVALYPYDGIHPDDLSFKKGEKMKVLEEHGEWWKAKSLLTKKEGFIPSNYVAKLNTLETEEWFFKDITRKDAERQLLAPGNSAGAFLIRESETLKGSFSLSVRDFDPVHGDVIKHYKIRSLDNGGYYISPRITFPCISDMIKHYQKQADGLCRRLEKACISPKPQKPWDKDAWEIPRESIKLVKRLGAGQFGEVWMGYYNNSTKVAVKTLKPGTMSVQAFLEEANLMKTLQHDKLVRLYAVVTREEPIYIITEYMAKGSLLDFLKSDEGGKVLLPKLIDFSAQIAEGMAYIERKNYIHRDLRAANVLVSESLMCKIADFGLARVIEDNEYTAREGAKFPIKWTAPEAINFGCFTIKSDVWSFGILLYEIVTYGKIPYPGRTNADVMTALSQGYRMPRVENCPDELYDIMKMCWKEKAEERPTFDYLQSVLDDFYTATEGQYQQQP
Put plainly: Kinase inhibition assay (33P transfer), Lyn. Conditions: Table 6, Lyn-1 kinase inhibition class. An outline of the steps:
as §1

Another assay has as its target T4, EGFR (Homo sapiens, UniProt P00533).
T4 construct: Kinases are expressed as either kinase domains or full length constructs; made in house
Put plainly: Kinase inhibition assay (33P transfer), EGFR. As to conditions: Table 2, kinase inhibition class; read-out: EGFR-1. The gist of the method: as §1

A further assay deals with T5, Lck (Homo sapiens, UniProt P06239).
T5 construct: Kinases are expressed as either kinase domains or full length constructs; made in house
T5 sequence (P06239 whole entry, species assumed, the tested form may be a part): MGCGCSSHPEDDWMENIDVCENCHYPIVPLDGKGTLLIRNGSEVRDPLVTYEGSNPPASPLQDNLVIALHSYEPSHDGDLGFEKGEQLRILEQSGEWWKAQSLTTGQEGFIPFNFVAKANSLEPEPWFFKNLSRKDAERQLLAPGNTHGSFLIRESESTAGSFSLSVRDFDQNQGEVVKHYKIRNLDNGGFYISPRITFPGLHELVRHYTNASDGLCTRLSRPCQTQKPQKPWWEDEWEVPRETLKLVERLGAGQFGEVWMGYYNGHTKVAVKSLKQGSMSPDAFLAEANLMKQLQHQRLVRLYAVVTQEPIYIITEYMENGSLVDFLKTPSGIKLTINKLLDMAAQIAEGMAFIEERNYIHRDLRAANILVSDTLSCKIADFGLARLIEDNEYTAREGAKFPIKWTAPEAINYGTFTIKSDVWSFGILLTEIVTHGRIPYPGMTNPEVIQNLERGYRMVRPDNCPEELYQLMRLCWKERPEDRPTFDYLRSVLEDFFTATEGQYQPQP
Put plainly: Kinase inhibition assay (33P transfer), Lck. Conditions: Table 3; read-out: Lck-1. The gist of the method: (§2)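 33P-ATP transfer to coated synthetic polymer substrates; acid wash (0.5% H3PO4), scintillant, liquid scintillation count. Enzymes: His- or GST-fusion kinases from E. coli or High Five insect cells.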

The target of a further assay is T6, Hck-1 (Homo sapiens, UniProt P08631).
T6 construct: Kinases are expressed as either kinase domains or full length constructs; made in house
T6 sequence (P08631 whole entry, the tested form may be a part): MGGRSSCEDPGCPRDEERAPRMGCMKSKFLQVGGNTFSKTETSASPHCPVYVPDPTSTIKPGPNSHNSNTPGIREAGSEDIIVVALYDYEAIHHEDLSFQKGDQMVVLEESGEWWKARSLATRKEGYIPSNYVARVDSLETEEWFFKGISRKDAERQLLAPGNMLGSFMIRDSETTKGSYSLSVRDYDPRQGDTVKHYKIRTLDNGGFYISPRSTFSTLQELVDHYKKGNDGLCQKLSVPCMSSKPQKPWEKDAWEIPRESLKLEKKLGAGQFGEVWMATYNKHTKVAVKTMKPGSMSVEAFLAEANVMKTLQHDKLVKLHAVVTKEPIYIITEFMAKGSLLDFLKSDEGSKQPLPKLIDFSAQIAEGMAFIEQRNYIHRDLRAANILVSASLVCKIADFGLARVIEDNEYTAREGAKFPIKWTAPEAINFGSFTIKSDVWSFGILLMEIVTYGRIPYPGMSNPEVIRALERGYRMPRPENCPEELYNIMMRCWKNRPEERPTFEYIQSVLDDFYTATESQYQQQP
Put plainly: Kinase inhibition assay (33P transfer), Hck. As to conditions: Table 6, Hck-1 kinase inhibition class.

In the next assay the target is T7, Src (Homo sapiens, UniProt P12931).
T7 construct: Kinases are expressed as either kinase domains or full length constructs; made in house
Put plainly: Kinase inhibition assay (33P transfer), Src. Conditions: Table 6, Src-1 kinase inhibition class. The gist of the method:
as §1

For a further assay, the target named is T8, Ret-1 (Homo sapiens, UniProt P07949).
T8 construct: Kinases are expressed as either kinase domains or full length constructs; made in house
T8 sequence (P07949 29-1114): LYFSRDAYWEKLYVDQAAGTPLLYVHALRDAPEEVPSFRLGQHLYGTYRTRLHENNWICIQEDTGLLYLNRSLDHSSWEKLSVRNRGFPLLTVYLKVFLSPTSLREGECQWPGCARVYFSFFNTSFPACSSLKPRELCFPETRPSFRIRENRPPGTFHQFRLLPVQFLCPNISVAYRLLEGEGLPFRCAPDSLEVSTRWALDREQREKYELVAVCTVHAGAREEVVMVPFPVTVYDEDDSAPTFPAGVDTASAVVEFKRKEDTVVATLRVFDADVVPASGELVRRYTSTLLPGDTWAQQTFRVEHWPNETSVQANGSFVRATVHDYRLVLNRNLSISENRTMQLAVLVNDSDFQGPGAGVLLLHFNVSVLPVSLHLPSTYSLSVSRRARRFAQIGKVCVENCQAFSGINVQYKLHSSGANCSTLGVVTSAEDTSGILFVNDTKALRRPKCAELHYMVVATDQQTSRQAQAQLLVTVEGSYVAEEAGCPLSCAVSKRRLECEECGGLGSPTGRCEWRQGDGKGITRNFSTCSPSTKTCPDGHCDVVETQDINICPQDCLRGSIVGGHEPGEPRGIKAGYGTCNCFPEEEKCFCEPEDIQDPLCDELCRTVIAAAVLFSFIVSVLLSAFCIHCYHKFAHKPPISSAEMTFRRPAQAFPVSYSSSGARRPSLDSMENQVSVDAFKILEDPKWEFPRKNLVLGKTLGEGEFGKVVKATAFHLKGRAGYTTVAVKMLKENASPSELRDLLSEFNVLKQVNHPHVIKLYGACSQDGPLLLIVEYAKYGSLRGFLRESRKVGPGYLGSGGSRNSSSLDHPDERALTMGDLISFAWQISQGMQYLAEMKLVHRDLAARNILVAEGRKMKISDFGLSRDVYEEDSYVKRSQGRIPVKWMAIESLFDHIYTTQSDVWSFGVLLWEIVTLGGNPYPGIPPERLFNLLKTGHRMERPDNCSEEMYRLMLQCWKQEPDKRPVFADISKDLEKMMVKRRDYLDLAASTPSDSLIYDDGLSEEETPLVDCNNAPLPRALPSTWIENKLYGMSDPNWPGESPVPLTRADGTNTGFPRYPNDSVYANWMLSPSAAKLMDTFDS
Put plainly: Kinase inhibition assay (33P transfer), Ret. As to conditions: Table 6, Ret-1 kinase inhibition class.

The target in the next assay is T9, Zap-70 (Homo sapiens, UniProt P43403).
T9 construct: Kinases are expressed as either kinase domains or full length constructs; made in house
T9 sequence (P43403 1-619): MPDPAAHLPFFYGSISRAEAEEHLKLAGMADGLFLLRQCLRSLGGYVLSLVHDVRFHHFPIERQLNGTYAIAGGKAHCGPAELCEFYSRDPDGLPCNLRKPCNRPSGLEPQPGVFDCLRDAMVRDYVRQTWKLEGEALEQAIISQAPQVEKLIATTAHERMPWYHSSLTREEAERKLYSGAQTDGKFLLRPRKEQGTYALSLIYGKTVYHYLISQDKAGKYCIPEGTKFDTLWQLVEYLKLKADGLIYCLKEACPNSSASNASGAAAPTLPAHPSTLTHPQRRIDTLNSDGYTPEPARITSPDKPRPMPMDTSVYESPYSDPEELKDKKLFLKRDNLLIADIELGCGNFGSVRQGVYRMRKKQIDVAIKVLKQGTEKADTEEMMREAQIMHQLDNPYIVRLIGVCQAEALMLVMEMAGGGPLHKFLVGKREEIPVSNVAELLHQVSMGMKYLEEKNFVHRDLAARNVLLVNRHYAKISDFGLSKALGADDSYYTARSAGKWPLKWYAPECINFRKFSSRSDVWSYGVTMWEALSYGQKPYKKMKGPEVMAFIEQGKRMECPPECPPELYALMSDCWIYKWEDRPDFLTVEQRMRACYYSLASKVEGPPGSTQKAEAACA
Put plainly: Kinase inhibition assay (33P transfer), Zap-70. Conditions: Table 3; read-out: Zap-1. The gist of the method:
as §2

T4 sequence (P00533 25-1210, species assumed): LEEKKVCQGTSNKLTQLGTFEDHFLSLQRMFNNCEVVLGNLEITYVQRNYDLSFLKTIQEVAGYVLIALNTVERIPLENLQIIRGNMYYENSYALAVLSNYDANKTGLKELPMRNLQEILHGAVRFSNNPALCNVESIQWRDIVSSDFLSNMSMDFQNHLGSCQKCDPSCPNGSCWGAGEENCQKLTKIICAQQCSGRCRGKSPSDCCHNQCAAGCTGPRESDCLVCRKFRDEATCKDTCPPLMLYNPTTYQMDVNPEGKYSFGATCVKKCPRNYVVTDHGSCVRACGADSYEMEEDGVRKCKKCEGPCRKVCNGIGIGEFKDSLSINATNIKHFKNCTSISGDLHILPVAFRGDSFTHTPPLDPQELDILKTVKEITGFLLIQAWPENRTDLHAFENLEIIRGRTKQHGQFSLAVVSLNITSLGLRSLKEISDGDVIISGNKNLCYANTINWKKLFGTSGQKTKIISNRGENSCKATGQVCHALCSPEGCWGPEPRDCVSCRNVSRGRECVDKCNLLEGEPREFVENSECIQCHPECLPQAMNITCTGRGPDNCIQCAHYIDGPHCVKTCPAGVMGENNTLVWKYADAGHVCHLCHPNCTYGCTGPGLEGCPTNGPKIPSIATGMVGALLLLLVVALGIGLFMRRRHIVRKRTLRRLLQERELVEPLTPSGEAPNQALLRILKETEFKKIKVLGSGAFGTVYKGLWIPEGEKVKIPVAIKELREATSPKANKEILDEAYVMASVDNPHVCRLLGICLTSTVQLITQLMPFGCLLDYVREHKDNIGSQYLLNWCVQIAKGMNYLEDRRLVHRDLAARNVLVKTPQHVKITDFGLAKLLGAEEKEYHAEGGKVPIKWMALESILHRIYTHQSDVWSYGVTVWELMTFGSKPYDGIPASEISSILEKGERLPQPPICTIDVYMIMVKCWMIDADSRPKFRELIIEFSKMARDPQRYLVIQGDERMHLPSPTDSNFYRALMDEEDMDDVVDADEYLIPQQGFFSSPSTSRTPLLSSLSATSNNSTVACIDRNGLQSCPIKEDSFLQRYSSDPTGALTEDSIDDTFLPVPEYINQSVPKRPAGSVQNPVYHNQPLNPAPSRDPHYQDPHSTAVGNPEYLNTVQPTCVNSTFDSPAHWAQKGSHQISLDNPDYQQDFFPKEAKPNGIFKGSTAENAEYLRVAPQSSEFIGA
T1 sequence (Q02763 23-1124, species assumed): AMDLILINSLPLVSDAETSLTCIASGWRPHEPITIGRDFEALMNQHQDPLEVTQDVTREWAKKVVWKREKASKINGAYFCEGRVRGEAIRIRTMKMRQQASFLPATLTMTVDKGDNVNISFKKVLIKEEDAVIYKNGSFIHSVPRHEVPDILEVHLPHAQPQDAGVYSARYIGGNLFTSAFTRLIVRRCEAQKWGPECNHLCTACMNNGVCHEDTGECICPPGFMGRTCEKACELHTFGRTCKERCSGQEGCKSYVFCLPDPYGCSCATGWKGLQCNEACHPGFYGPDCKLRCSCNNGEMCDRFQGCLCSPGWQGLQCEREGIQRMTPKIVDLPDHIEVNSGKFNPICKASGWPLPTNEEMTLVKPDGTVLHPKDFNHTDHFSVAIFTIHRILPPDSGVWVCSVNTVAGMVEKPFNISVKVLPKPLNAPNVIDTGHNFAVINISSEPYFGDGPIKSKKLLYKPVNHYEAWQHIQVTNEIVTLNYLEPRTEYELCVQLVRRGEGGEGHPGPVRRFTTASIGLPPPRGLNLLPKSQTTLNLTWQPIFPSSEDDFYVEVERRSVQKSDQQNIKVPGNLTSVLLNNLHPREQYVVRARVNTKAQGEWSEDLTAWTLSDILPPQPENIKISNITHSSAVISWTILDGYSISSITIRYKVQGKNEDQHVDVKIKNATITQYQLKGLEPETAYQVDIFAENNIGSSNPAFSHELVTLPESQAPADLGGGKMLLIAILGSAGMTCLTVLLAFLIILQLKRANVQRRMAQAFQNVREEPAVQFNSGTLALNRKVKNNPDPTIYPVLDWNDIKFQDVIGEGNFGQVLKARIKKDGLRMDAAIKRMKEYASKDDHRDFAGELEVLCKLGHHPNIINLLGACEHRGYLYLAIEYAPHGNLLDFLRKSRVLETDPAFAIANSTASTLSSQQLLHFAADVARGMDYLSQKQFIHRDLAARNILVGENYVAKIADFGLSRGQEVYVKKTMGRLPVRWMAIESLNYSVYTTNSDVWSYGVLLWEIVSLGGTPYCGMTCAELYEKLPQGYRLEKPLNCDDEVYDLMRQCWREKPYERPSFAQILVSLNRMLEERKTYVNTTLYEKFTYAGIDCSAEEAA

With `COc1ccc2c(ccn2-c2ncnc(Nc3cc(OC)c(OC)c(OC)c3)n2)c1` [Compound 196], the pIC50 is below 4.96 at Tek; below 4.96 at EPHB4; 5.07 to 5.23 on Lyn; 4.96 to 5.07 on EGFR; below 4.96 at Lck; below 4.96 against Hck-1. Also, the pIC50 at Src, against Ret-1 and at Zap-70 was below 4.96 each time.
As to `COc1cc(Nc2ncnc(-n3ccc4cc(OCc5ccccc5)ccc43)n2)cc(OC)c1OC` [Compound 200], the pIC50 at Tek was below 5.03; on EPHB4 it was below 5.03; against Lyn, below 5.03; at EGFR, below 5.03; at Lck it was 5.03 to 5.14; on Hck-1 it was below 5.03. Further, the pIC50 against Src, on Ret-1 and at Zap-70 was below 5.03 throughout.
Regarding `COc1ccc(Nc2ncnc(-n3c(N)nc4ccccc43)n2)cc1OC` [Compound 285], the pIC50 was below 4.91 at Tek; below 4.91 on EPHB4; below 4.91 on Lyn; below 4.91 on EGFR; 5.18 to 5.96 at Lck; below 4.91 on Hck-1. For the same molecule, the pIC50 was below 4.91 against Src, 5.02 to 5.18 against Ret-1 and below 4.91 at Zap-70.
Regarding `COc1ccc(Nc2ncnc(Nc3ccc(C)c(O)c3)n2)cc1OC` [Compound 119], the pIC50 at Tek was below 4.90; on EPHB4 it was below 4.90; against Lyn, 5.17 to 5.95; at EGFR, above 5.95; at Lck, 5.17 to 5.95; against Hck-1 it was below 4.90. Also, the values for the pIC50 against Src, against Ret-1 and at Zap-70 were 5.17 to 5.95, above 5.95 and below 4.90, respectively.
Turning to `COc1cc(Nc2ncnc(Nc3ccc(C)c(F)c3)n2)cc(OC)c1OC` [Compound 300], the pIC50 on Tek is 4.93 to 5.04; at EPHB4 it was 5.21 to 5.98; at Lyn, above 5.98; at EGFR, above 5.98; at Lck, 5.21 to 5.98; at Hck-1 it was below 4.93. Besides, the pIC50 was above 5.98 against Src, 5.21 to 5.98 against Ret-1 and below 4.93 on Zap-70.
